Test results from patent publication US20230128357A1, “Compound Combination with Superior Herbicidal Activity” (priority 2020, published 2023).

How the values were obtained:
Assay in all cases: Herbicidal action, field trial, post-emergence
Type in all cases: in vivo
Chenopodium album = system: Chenopodium album
From the text: (§1) The growth stages of the different weed or crop plant species are indicated according to the BBCH monograph “Growth stages of mono- and dicotyledonous plants”, 2nd edition, 2001, ed. Uwe Meier, Federal Biological Research Centre for Agriculture and Forestry (Biologische Bundesanstalt für Land und Forstwirtschaft). The respective BBCH stages are mentioned in brackets for the different weed or crop plant species and indicate the BBCH stage for the majority of the respective weed or crop plant species.
(§2) The dose rates of herbicidal ingredients used in each case are indicated for the respective active ingredient in brackets and refer to the amount of active ingredient per hectare (g a.i./ha).
(§3) EC=A+B+C−[((A·B)+(A·C)+(B·C)]100)+(A·B·C/10000)

Polygonum convolvulus = system: Polygonum convolvulus
From the text: as §1, §2, §3

Echinocloa crus-galli = system: Echinocloa crus-galli
From the text: as §1, §2, §3

Zea mays = system: Zea mays
From the text: as §1, §2, §3

Setaria viridis = system: Setaria viridis
From the text: as §1, §2, §3

Panicum maximum = system: Panicum maximum
From the text: as §1, §2, §3

Abutilon theophrasti = settings: Table 2
From the text: as §1, §2

## Cc1ccc2c(c1)[C@H](Nc1nc(N)nc([C@@H](C)F)n1)[C@@H](C)C2 (mixture of isomers) [Indaziflam, N2-[(1R,2S)-2,3-dihydro-2,6-dimethyl-1H-inden-1-yl]-6-[(1RS)-1-fluoroethyl]-1,3,5-triazine-2,4-diamine]
Chenopodium album; 10 g a.i./ha, Table 9
  Herbicidal Activity 13 DAT (EA): 0%
Chenopodium album; 25 g a.i./ha, Table 9
  Herbicidal Activity 13 DAT (EA): 10%
Polygonum convolvulus; 10 g a.i./ha, Table 8
  Herbicidal Activity 13 DAT (EA): 20%
Polygonum convolvulus; 25 g a.i./ha, Table 8
  Herbicidal Activity 13 DAT (EA): 20%
Echinocloa crus-galli; 10 g a.i./ha, Table 11
  Herbicidal Activity 13 DAT (EA): 0%
Echinocloa crus-galli; 25 g a.i./ha, Table 11
  Herbicidal Activity 13 DAT (EA): 0%
Zea mays; 10 g a.i./ha, Table 13
  Herbicidal Activity 13 DAT (EA): 0%
Zea mays; 25 g a.i./ha, Table 13
  Herbicidal Activity 13 DAT (EA): 0%
Setaria viridis; 10 g a.i./ha, Table 10
  Herbicidal Activity 13 DAT (EA): 0%
Setaria viridis; 25 g a.i./ha, Table 10
  Herbicidal Activity 13 DAT (EA): 0%
Panicum maximum; 10 g a.i./ha, Table 12
  Herbicidal Activity 13 DAT (EA): 0%
Panicum maximum; 25 g a.i./ha, Table 12
  Herbicidal Activity 13 DAT (EA): 0%

## O=C(Nc1ccc(F)cc1F)c1cccnc1Oc1cccc(C(F)(F)F)c1 [Diflufenican, diflufenican]
Chenopodium album; 60 g a.i./ha, Table 3
  Herbicidal Activity 13 DAT (EA): 10%
Chenopodium album; 90 g a.i./ha, Table 9
  Herbicidal Activity 13 DAT (EA): 10%
Chenopodium album; 150 g a.i./ha, Table 3
  Herbicidal Activity 13 DAT (EA): 10%
Chenopodium album; 150 g a.i./ha, Table 9
  Herbicidal Activity 13 DAT (EA): 10%
Polygonum convolvulus; 60 g a.i./ha, Table 1
  Herbicidal Activity 13 DAT (EA): 40%
Polygonum convolvulus; 90 g a.i./ha, Table 8
  Herbicidal Activity 13 DAT (EA): 45%
Polygonum convolvulus; 150 g a.i./ha, Table 1
  Herbicidal Activity 13 DAT (EA): 60%
Polygonum convolvulus; 150 g a.i./ha, Table 8
  Herbicidal Activity 13 DAT (EA): 60%
Echinocloa crus-galli; 60 g a.i./ha, Table 5
  Herbicidal Activity 13 DAT (EA): 0%
Echinocloa crus-galli; 90 g a.i./ha, Table 11
  Herbicidal Activity 13 DAT (EA): 0%
Echinocloa crus-galli; 150 g a.i./ha, Table 5
  Herbicidal Activity 13 DAT (EA): 0%
Echinocloa crus-galli; 150 g a.i./ha, Table 11
  Herbicidal Activity 13 DAT (EA): 0%
Zea mays; 60 g a.i./ha, Table 7
  Herbicidal Activity 13 DAT (EA): 13%
Zea mays; 90 g a.i./ha, Table 13
  Herbicidal Activity 13 DAT (EA): 10%
Zea mays; 150 g a.i./ha, Table 7
  Herbicidal Activity 13 DAT (EA): 25%
Zea mays; 150 g a.i./ha, Table 13
  Herbicidal Activity 13 DAT (EA): 25%
Setaria viridis; 60 g a.i./ha, Table 4
  Herbicidal Activity 13 DAT (EA): 0%
Setaria viridis; 90 g a.i./ha, Table 10
  Herbicidal Activity 13 DAT (EA): 0%
Setaria viridis; 150 g a.i./ha, Table 4
  Herbicidal Activity 13 DAT (EA): 0%
Setaria viridis; 150 g a.i./ha, Table 10
  Herbicidal Activity 13 DAT (EA): 0%
Panicum maximum; 60 g a.i./ha, Table 6
  Herbicidal Activity 13 DAT (EA): 10%
Panicum maximum; 90 g a.i./ha, Table 12
  Herbicidal Activity 13 DAT (EA): 10%
Panicum maximum; 150 g a.i./ha, Table 6
  Herbicidal Activity 13 DAT (EA): 10%
Panicum maximum; 150 g a.i./ha, Table 12
  Herbicidal Activity 13 DAT (EA): 10%
Abutilon theophrasti; 60 g a.i./ha
  Herbicidal Activity 13 DAT (EA): 35%
Abutilon theophrasti; 150 g a.i./ha
  Herbicidal Activity 13 DAT (EA): 65%

## CCCCCCCCC(=O)O [Pelargonic acid]
Chenopodium album; 6000 g a.i./ha, Table 3
  Herbicidal Activity 13 DAT (EA): 45%
Chenopodium album; 6000 g a.i./ha, Table 9
  Herbicidal Activity 13 DAT (EA): 42.5%
Chenopodium album; 16000 g a.i./ha, Table 3
  Herbicidal Activity 13 DAT (EA): 88%
Chenopodium album; 16000 g a.i./ha, Table 9
  Herbicidal Activity 13 DAT (EA): 84%
Polygonum convolvulus; 6000 g a.i./ha, Table 1
  Herbicidal Activity 13 DAT (EA): 10%
Polygonum convolvulus; 6000 g a.i./ha, Table 8
  Herbicidal Activity 13 DAT (EA): 25%
Polygonum convolvulus; 16000 g a.i./ha, Table 1
  Herbicidal Activity 13 DAT (EA): 89%
Polygonum convolvulus; 16000 g a.i./ha, Table 8
  Herbicidal Activity 13 DAT (EA): 90%
Echinocloa crus-galli; 6000 g a.i./ha, Table 5
  Herbicidal Activity 13 DAT (EA): 25%
Echinocloa crus-galli; 6000 g a.i./ha, Table 11
  Herbicidal Activity 13 DAT (EA): 13%
Echinocloa crus-galli; 16000 g a.i./ha, Table 5
  Herbicidal Activity 13 DAT (EA): 35%
Echinocloa crus-galli; 16000 g a.i./ha, Table 11
  Herbicidal Activity 13 DAT (EA): 30%
Zea mays; 6000 g a.i./ha, Table 7
  Herbicidal Activity 13 DAT (EA): 40%
Zea mays; 6000 g a.i./ha, Table 13
  Herbicidal Activity 13 DAT (EA): 39%
Zea mays; 16000 g a.i./ha, Table 7
  Herbicidal Activity 13 DAT (EA): 60%
Zea mays; 16000 g a.i./ha, Table 13
  Herbicidal Activity 13 DAT (EA): 63%
Setaria viridis; 6000 g a.i./ha, Table 4
  Herbicidal Activity 13 DAT (EA): 40%
Setaria viridis; 6000 g a.i./ha, Table 10
  Herbicidal Activity 13 DAT (EA): 25%
Setaria viridis; 16000 g a.i./ha, Table 4
  Herbicidal Activity 13 DAT (EA): 55%
Setaria viridis; 16000 g a.i./ha, Table 10
  Herbicidal Activity 13 DAT (EA): 50%
Panicum maximum; 6000 g a.i./ha, Table 6
  Herbicidal Activity 13 DAT (EA): 10%
Panicum maximum; 6000 g a.i./ha, Table 12
  Herbicidal Activity 13 DAT (EA): 15%
Panicum maximum; 16000 g a.i./ha, Table 6
  Herbicidal Activity 13 DAT (EA): 65%
Panicum maximum; 16000 g a.i./ha, Table 12
  Herbicidal Activity 13 DAT (EA): 58%
Abutilon theophrasti; 6000 g a.i./ha
  Herbicidal Activity 13 DAT (EA): 40%
Abutilon theophrasti; 16000 g a.i./ha
  Herbicidal Activity 13 DAT (EA): 80%
